SMILES strings stand for the structures.

The values that follow come from patent US20090299036A1, “AGENT FOR PREVENTING ARTERIOSCLEROSIS, AGENT FOR SUPPRESSING VASCULAR INTIMAL THICKENING AND AGENT FOR IMPROVING VASCULAR ENDOTHELIAL FUNCTION” (Calpis Co, Ltd, priority 2006, published 2009).

The subject of experiment [1] is thoracic aorta of Wistar rats. Briefly: Endothelium-dependent vasodilator response of aorta ring from L-NAME-treated rats (Magnus apparatus). The class given is in vivo, rat. The protocol: Wistar rats (7 weeks of age, male) as the test animals were acclimatized for one week. A nitric oxide synthesis inhibitor, NG-nitro-L-arginine methyl ester hydrochloride (L-NAME, manufactured by SIGMA-ALDRICH CORP.) was dissolved in drinking water at the concentration of 1 g/L, and similarly, L-NAME and Val-Pro-Pro synthesized above at 1 g/L and 0.3 g/L, respectively, and L-NAME and Ile-Pro-Pro synthesized above at 1 g/L and 0.3 g/L, respectively. The rats were allowed free access to the prepared drinking water for one week. As a control, only the drinking water without L-NAME dissolved therein was given to a non-treatment group.
Then, the rats were subjected to fatal exsanguination under diethyl ether anesthesia. The thoracic aorta was taken out, cut into 2 mm long, and made into an aorta ring. The ring was set in a Magnus apparatus (product name “micro tissue organ bath MTOB-1Z”, manufactured by LABO SUPPORT CO., LTD.) filled with 5 ml of Tyrode's solution (composition: 158.3 mM of NaCl, 4.0 mM of KCl, 2.0 mM of CaCl2, […] of MaCl2, 0.42 mM of NaH2PO4, 10.0 mM of NaHCO3, and 5.6 mM of glucose; pH 7.4, 37±0.5° C.), and allowed to equilibrate with the resting tension of 2.0 g. The aorta ring was then allowed to constrict with 1 μM of phenylephrine. […] The degree of vasodilation by the response was determined as a ratio to the constriction with 1 μM of phenylephrine. […]

Experiment [2] relates to arteriosclerosis. Conditions: Non-patent Publication 5; cited from earlier work.

With `CCOC(=O)[C@H](CCc1ccccc1)N[C@@H](C)C(=O)N1CCC[C@H]1C(=O)O` [enalapril], in experiment [1] (drinking water for one week: L-NAME 1 g/L, peptide 0.3 g/L, enalapril 0.5 mg/L, 10 μM acetylcholine, ratio to constriction with 1 μM phenylephrine, group average), the Degree of vasodilation is listed as 31.6%. The “degree of vasodilation compared to the group given only L-NAME” value in experiment [1] (given together with L-NAME) is “no significant difference”. In addition, the arteriosclerosis inhibitory effect result in experiment [2] is “does not result in an arteriosclerosis inhibitory effect”.
